Results published in the CheMixHub viscosity set.
Values joined by “and” are separate entries in the source; they are usually repeats but may differ in a detail not shown here. Identical values can stand only once. ± gives the uncertainty stated by the source.

Test: xn = mol fraction of the nth substance listed

OC[C@H]1O[C@H](O[C@H]2[C@H](O)[C@@H](O)C(O)O[C@@H]2CO)[C@H](O)[C@@H](O)[C@@H]1O (stereo not given in full) + O
viscosity
Conditions	293.15 K	298.15 K	303.15 K	308.15 K	313.15 K	318.15 K
100 kPa, x1 = 0.0009465	–	–	–	0.759 ± 0.076 mPa·s	–	0.627 ± 0.063 mPa·s
100 kPa, x1 = 0.000975	–	0.942 ± 0.021 mPa·s	–	0.763 ± 0.021 mPa·s	–	0.628 ± 0.02 mPa·s
100 kPa, x1 = 0.001093	–	0.948 ± 0.095 mPa·s	–	0.765 ± 0.077 mPa·s	–	0.632 ± 0.063 mPa·s
100 kPa, x1 = 0.001306	–	0.96 ± 0.096 mPa·s	–	0.773 ± 0.077 mPa·s	–	0.639 ± 0.064 mPa·s
100 kPa, x1 = 0.00134	–	0.96 ± 0.021 mPa·s	–	0.776 ± 0.021 mPa·s	–	0.639 ± 0.021 mPa·s
100 kPa, x1 = 0.001467	–	0.968 ± 0.097 mPa·s	–	–	–	–
100 kPa, x1 = 0.00157	–	0.972 ± 0.021 mPa·s	–	0.786 ± 0.021 mPa·s	–	0.645 ± 0.021 mPa·s
100 kPa, x1 = 0.001596	–	0.975 ± 0.098 mPa·s	–	0.785 ± 0.079 mPa·s	–	0.648 ± 0.065 mPa·s
100 kPa, x1 = 0.001818	–	0.985 ± 0.021 mPa·s	–	0.794 ± 0.021 mPa·s	–	0.655 ± 0.021 mPa·s
100 kPa, x1 = 0.002168	–	–	–	0.804 ± 0.021 mPa·s	–	0.667 ± 0.021 mPa·s
100 kPa, x1 = 0.002215	–	–	–	0.81 ± 0.021 mPa·s	–	0.669 ± 0.021 mPa·s
100 kPa, x1 = 0.002657	–	1.029 ± 0.1 mPa·s	–	0.827 ± 0.083 mPa·s	–	0.682 ± 0.068 mPa·s
101 kPa, x1 = 0.0009	1.022 ± 0.013 mPa·s	0.9029 ± 0.011 mPa·s	0.8044 ± 0.01 mPa·s	0.7221 ± 0.0093 mPa·s	0.6529 ± 0.0089 mPa·s	–
101 kPa, x1 = 0.00099	1.025 ± 0.013 mPa·s	0.9064 ± 0.011 mPa·s	0.8074 ± 0.01 mPa·s	0.724 ± 0.0093 mPa·s	0.6549 ± 0.0089 mPa·s	–
101 kPa, x1 = 0.0011	1.03 ± 0.016 mPa·s	0.9093 ± 0.012 mPa·s	0.8099 ± 0.011 mPa·s	0.7266 ± 0.0098 mPa·s	0.6564 ± 0.009 mPa·s	–
101 kPa, x1 = 0.0012	1.033 ± 0.017 mPa·s	0.9119 ± 0.012 mPa·s	0.812 ± 0.011 mPa·s	0.7287 ± 0.0099 mPa·s	0.6586 ± 0.009 mPa·s	–
101 kPa, x1 = 0.0013	1.037 ± 0.013 mPa·s and 1.041 ± 0.019 mPa·s	0.9159 ± 0.012 mPa·s and 0.9193 ± 0.012 mPa·s	0.8144 ± 0.011 mPa·s and 0.8178 ± 0.011 mPa·s	0.7315 ± 0.0098 mPa·s and 0.7341 ± 0.0099 mPa·s	0.6606 ± 0.01 mPa·s and 0.6619 ± 0.0094 mPa·s	–
101 kPa, x1 = 0.0014	1.045 ± 0.014 mPa·s	0.9231 ± 0.012 mPa·s	0.8202 ± 0.011 mPa·s	0.7362 ± 0.0098 mPa·s	0.6645 ± 0.0091 mPa·s	–
101 kPa, x1 = 0.0015	1.05 ± 0.014 mPa·s	0.9262 ± 0.012 mPa·s	0.823 ± 0.011 mPa·s	0.7383 ± 0.0098 mPa·s	0.6669 ± 0.0091 mPa·s	–
101 kPa, x1 = 0.0016	1.054 ± 0.015 mPa·s	–	0.8261 ± 0.011 mPa·s	0.7406 ± 0.0098 mPa·s	0.6687 ± 0.0088 mPa·s	–
101 kPa, x1 = 0.0018	1.062 ± 0.014 mPa·s	0.9361 ± 0.014 mPa·s	0.833 ± 0.013 mPa·s	0.7449 ± 0.011 mPa·s	0.6724 ± 0.0091 mPa·s	–
101.3 kPa, x1 = 0.000724	–	–	–	0.751 ± 0.04 mPa·s	–	–
101.3 kPa, x1 = 0.00107	–	0.948 ± 0.041 mPa·s	–	0.766 ± 0.04 mPa·s	–	0.633 ± 0.04 mPa·s
101.3 kPa, x1 = 0.00143	–	0.964 ± 0.041 mPa·s	–	0.779 ± 0.04 mPa·s	–	0.643 ± 0.04 mPa·s
101.3 kPa, x1 = 0.00179	–	0.984 ± 0.041 mPa·s	–	0.794 ± 0.04 mPa·s	–	0.655 ± 0.04 mPa·s
101.3 kPa, x1 = 0.002146	–	–	–	0.809 ± 0.04 mPa·s	–	–
101.3 kPa, x1 = 0.002501	–	1.019 ± 0.041 mPa·s	–	0.819 ± 0.04 mPa·s	–	0.678 ± 0.04 mPa·s
101.3 kPa, x1 = 0.002851	–	1.037 ± 0.041 mPa·s	–	0.836 ± 0.04 mPa·s	–	0.688 ± 0.04 mPa·s
101.3 kPa, x1 = 0.003177	–	1.053 ± 0.041 mPa·s	–	0.848 ± 0.04 mPa·s	–	0.698 ± 0.04 mPa·s
